Data from PMC2375326, “In vitro evaluation of amino acid prodrugs of novel antitumour 2-(4-amino-3-methylphenyl)benzothiazoles” (British Journal of Cancer, 2002).

Experiments:
[1] = tested on: MCF-7 (ER+) human derived breast carcinoma cells; experiment: Growth inhibitory assay (MTT), MCF-7; type: cell-based; details: MCF7, ER+ MCF-7, 3 days (72 h) treatment, n=8, representative mean, ^a = biphasic dose response
Protocol: (§1) Prodrugs were prepared as 10 mM top stocks, dissolved in dimethylsulphoxide (DMSO) or sterile ddH2O, and stored at 4°C, protected from light for a maximum period of 4 weeks. MCF-7 (ER+) and MDA 468 (ER−) human derived breast carcinoma cells, cultivated at 37°C in an atmosphere of 5% CO2 in RPMI 1640 medium supplemented with 2 mM L-glutamine and 10% foetal calf serum, were routinely subcultured twice weekly to maintain continuous logarithmic growth. Cells were seeded into 96-well microtiter plates at a density of 5×10^3 per well and allowed 24 h to adhere before drugs were introduced (final concentration 0.1 nM–100 μM, n=8). Serial drug dilutions were prepared in medium immediately prior to each assay. Viable cell masses at the time of drug addition (time-zero), and following 72 h drug exposure were determined by cell-mediated 3-(4,5-dimethylthiazol-2-yl)-2,5-diphenyltetrazolium bromide (MTT) reduction. MTT was added to each well (final concentration 400 μg ml^−1) and plates were incubated at 37°C for 4 h to allow reduction of MTT by viable cell dehydrogenases to an insoluble formazan product. Well supernatants were aspirated and cellular formazan solubilised by addition of DMSO : glycine buffer (pH 10.5) (4 : 1). Cell growth as well as drug activity were determined by measuring absorbance at 550 nm using an Anthos Labtec systems plate reader.

[2] = tested on: MDA 468 (ER−) human derived breast carcinoma cells; experiment: Growth inhibitory assay (MTT), MDA 468; type: cell-based; details: Breast carcinoma cell, ER− MDA 468, 3 days (72 h) treatment, n=8, representative mean, ^a = biphasic dose response
Protocol: as §1

[3] = Stability in human plasma; type: in vitro ADME; details: 37°C; no free amine detected
From the text: Data have been presented describing the in vitro biological properties of alanyl and lysyl amide derivatives of 2-(4-amino-3-methylphenyl)benzothiazoles. Prodrugs are rapidly depleted from nutrient media, generating their parent species in the presence of cells (Figures 2 and 3). In the absence of cells, no spontaneous hydrolysis of the amide bond occurs to release the amine from its amino acid salt. The cleavage of amino acid amides may be catalysed by ubiquitously expressed aminopeptidases, but subsequent bioactivating steps, essential for the mechanism of action of aminophenylbenzothiazoles, take place selectively in sensitive cell lines (e.g. Figure 5). Compounds 1a and 1b were stable when incubated at 37°C with human plasma; specifically, no free amine was detected.

[4] = tested on: CYP1A1 activity (EROD) in MCF-7 cells; experiment: Induction of EROD activity in lysates of treated MCF-7 cells; type: cell-based, human; details: lysates of MCF-7 cells treated with 1 μM, 24 h; negligible activity in untreated lysates; mean of three, s.d. <10%
Protocol: (§2) A sensitive and rapid fluorometric assay was used to measure EROD activity ([Burke et al, 1994]). Incubation mixtures (total 1 ml) consisted of 100 mM Tris-HCl (pH 7.4), 50 μM MgCl2, 100 μM 7-ethoxyresorufin and 100 μl cell homogenate. Homogenates were prepared following treatment of cells for 24 h with compounds 1, 2, 2a, 2b, 3, 3a, 3b, 4, 4a and 4b or vehicle alone and protein content determined (n=3). Thus induction of ethoxyresorufin O-deethylation by agents under study, catalysed by CYP1A1 activity, could be determined. Alternatively, microsomes expressing recombinant CYP1A1 (0.1 mg ml^−1) provided the enzyme source for EROD catalysis, in the presence or absence of drug, in order to determine inhibition of CYP1A1 activity by compounds 1, 2, 2a, 2b, 3, 3a, 3b, 4, 4a and 4b. Incubation mixtures were pre-incubated for 5 min at 37°C before initiation of reaction by addition of NADPH (500 μM). Following further incubations at 37°C (30 min for cell homogenates, 15 min for CYP1A1 microsomes), reactions were terminated by addition of 3 ml ice-cold acetonitrile. Reaction mixtures were centrifuged (1400 r.p.m., 10 min) before analyses of supernatants. Fluorescence was read on a Perkin-Elmer LS-5 luminescence spectrometer (excitation, 530 nm; emission 585 nm). Estimation of resorufin reaction product (pmoles mg^−1 protein, pmoles 100 μg^−1 microsomes), as a measure of CYP1A1 activity, was determined following performance of a resorufin standard curve.

[5] = target: T1, CYP1A1 (Homo sapiens, UniProt P04798); experiment: Inhibition of recombinant CYP1A1 microsomal EROD activity; type: biochemical; details: microsomes expressing recombinant CYP1A1, pH 7.4, probe 7-ethoxyresorufin (100 μM); 30 μM agent; incubates without drug = 100% activity; mean of three, s.d. <10%; read-out: Microsomal CYP1A1 EROD activity (% control)
T1 sequence (P04798 1-512): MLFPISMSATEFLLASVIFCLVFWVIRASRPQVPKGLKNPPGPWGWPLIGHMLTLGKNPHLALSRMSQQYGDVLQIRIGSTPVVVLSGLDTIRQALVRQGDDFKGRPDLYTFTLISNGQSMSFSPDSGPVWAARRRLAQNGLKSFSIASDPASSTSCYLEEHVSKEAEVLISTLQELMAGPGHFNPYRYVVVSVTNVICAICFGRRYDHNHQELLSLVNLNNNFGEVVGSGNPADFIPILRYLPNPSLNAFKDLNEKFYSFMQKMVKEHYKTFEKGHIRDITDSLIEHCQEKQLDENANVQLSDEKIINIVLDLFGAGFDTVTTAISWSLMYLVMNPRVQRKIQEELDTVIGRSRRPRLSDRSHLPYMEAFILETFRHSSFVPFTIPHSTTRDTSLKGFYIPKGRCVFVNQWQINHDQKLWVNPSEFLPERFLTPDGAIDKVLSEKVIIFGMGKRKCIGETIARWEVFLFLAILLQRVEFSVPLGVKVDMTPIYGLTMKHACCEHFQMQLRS
Protocol: as §2

[6] = tested on: CYP1A1 protein expression in MCF-7 cells; experiment: Western blot of CYP1A1 protein, MCF-7 lysates; type: cell-based, human; details: 1 μM, 24 h
Protocol: (§3) Whole cell lysates were prepared for examination of CYP1A1 protein expression from untreated MCF-7, IGROV-1 and HCT 116 cultures and following exposure of cells to compounds 1, 2, 2a, 2b, 3, 3a, 3b, 4, 4a and 4b. Following protein determination (n=3, [Bradford, 1976]) and addition of sample buffer, samples were boiled at 95°C for 5 min and solubilised proteins (50 μg) were separated by sodium dodecyl sulphate (SDS) polyacrylamide gel (10%) electrophoresis. Proteins were electroblotted to polyvinylidene difluoride (PVDF) membranes and probed for CYP1A1 protein with polyclonal antiserum specific for human CYP1A1/1A2 (Gentest Corporation). Secondary antibody was conjugated to alkaline phosphatase, and CYP1A1 was detected following brief (<10 min) incubation with bromochloroindolyl phosphate and nitro-blue tetrazolium in alkaline phosphatase buffer. Molecular weight markers and a positive control of recombinant CYP1A1 (Gentest Corporation), included in all blots, confirmed detection of 52 kDa CYP1A1 protein.

[7] = tested on: CYP1A1 protein expression in HCT 116 cells; experiment: Western blot of CYP1A1 protein, HCT 116 lysates; type: cell-based, human
Protocol: as §3

[8] = tested on: MCF-7 cells; experiment: Prodrug uptake, conversion and metabolism (HPLC of media), MCF-7; type: in vitro ADME, human; details: for Biotransformation products of liberated parent amine in media: prodrug 10 μM, days 1–7
Protocol: (§4) MCF-7 cells were seeded into 25 ml flasks at appropriate densities (5×10^5–5×10^6). After 24 h, medium was changed and drug introduced at a final concentration of 10 μM. Media samples, collected from flasks at time zero and 24 h intervals, were mixed with 1.5-fold volumes of high performance liquid chromatography (HPLC) grade acetonitrile to precipitate protein and centrifuged at 14 000 g for 5 min. Supernatants (600 μl) were mixed with 400 μl 10% acetonitrile in 1% acetic acid and analysed by HPLC. The system consisted of Beckman System Gold equipment (solvent module 128, autosampler 507e and multiple wavelength UV detector 168). Separation of parent compounds and biotransformation products was effected at room temperature on a Phenomenex Aqua C18 reversed-phase column (150×4.6 mm). The mobile phase was formed by increasing, then decreasing the acetonitrile concentration in 1% acetic acid over 20 min by mixing two solutions: acetonitrile-water-acetic acid (10 : 90 : 1, v v^−1) and acetonitrile-water-acetic acid (80 : 20 : 1 v v^−1) and delivered at a flow rate of 1 ml min^−1. Compounds were detected at 324 nm.

[9] = tested on: T47D breast cells; experiment: Prodrug uptake, conversion and metabolism (HPLC of media), T47D; type: in vitro ADME, human
Protocol: as §4, with “The mobile phase was formed by increasing, then decreasing the acetonitrile concentration in 1% acetic acid over 20 min by mixing two solutions: acetonitrile-water-acetic acid (10 : 90 : 1, v v^−1) and acetonitrile-water-acetic acid (80 : 20 : 1 v v^−1) and delivered at a flow rate of 1 ml min^−1.” left out
(§5) Uptake and metabolism of compounds 1a and 1b were examined in sensitive breast (MCF-7 and T47D) and insensitive renal (A498) cells using HPLC conditions which allow simultaneous detection of prodrug, parent amine and metabolites. When incubated at 0.1, 1 or 10 μM over 7 days at 37°C, the lysyl-amide compound 1a was most readily removed from the media supporting MCF-7 and T47D cells (Figure 2

[10] = tested on: A498 renal cells; experiment: Prodrug uptake, conversion and metabolism (HPLC of media), A498; type: in vitro ADME, human
Protocol: as §4, with “The mobile phase was formed by increasing, then decreasing the acetonitrile concentration in 1% acetic acid over 20 min by mixing two solutions: acetonitrile-water-acetic acid (10 : 90 : 1, v v^−1) and acetonitrile-water-acetic acid (80 : 20 : 1 v v^−1) and delivered at a flow rate of 1 ml min^−1.” left out
as §5

[11] = target: T1, CYP1A1; design: method as in Chua et al, 2000; details: ref Chua et al, 2000; cited from earlier work

SMILES	GI50 [1] [nM]	GI50 [2] [nM]	Stability in human plasma [3]	Induction EROD activity [4]	activity at 15 min, 30 μM [5] [%]	CYP1A1 protein expression (Western blot) [6]	CYP1A1 protein expression (Western blot) [7]	Time of peak media level of regenerated parent amine ([8]; regenerated from amide prodrugs, 7 day incubation) [days]	Time of peak media level of regenerated parent amine ([9]; T47D cells, regenerated from amide prodrugs, 7 day incubation) [days]	Removal of effluxed parent amine from media ([10]; inherently resistant A498 cells, 7 day incubation)	Inhibition of CYP1A1 microsome activity [11]	Hydrolysis of prodrug to parent amine ([9]; 10 μM, sensitive ER+ T47D breast cells, 37°C)	Hydrolysis of prodrug to parent amine ([10]; 10 μM, insensitive A498 renal cells, 37°C)	Biotransformation products of liberated parent amine in media [8]
Cc1cc(-c2nc3ccccc3s2)ccc1NC(=O)[C@@H](N)CCCCN [Compound 1b]	41.6	67.1	stable	–	–	–	–	–	–	–	–	–	–	–
Cc1cc(-c2nc3ccc(F)cc3s2)ccc1NC(=O)[C@H](C)N [Compound 3a]	43.5	297	–	20.40 nM resorufin mg^-1 protein	28.9	induced	–	–	–	–	–	–	–	–
Cc1cc(-c2nc3ccc(F)cc3s2)ccc1NC(=O)[C@@H](N)CCCCN [Compound 3b]	147	328	–	19.88 nM resorufin mg^-1 protein	47	induced	–	–	–	–	–	–	–	–
Cc1cc(-c2nc3cc(F)ccc3s2)ccc1NC(=O)[C@H](C)N [Compound 2a]	5.8	37.7	–	28.37 nM resorufin mg^-1 protein	40.6	induced	–	–	–	–	–	–	–	–
Cc1cc(-c2nc3ccccc3s2)ccc1N [Compound 1, 2-(4-amino-3-methylphenyl)benzothiazole]	< 0.1	< 0.1	–	17.58 nM resorufin mg^-1 protein	22.6	induced	not induced	3	3	negligible net removal	irreversibly inhibited	–	–	–
Cc1cc(-c2nc3ccccc3s2)ccc1NC(=O)[C@H](C)N [Compound 1a]	0.32	39.9	stable	–	–	–	–	–	–	–	–	rapidly and efficiently hydrolysed	rapidly and efficiently hydrolysed	–
Cc1cc(-c2nc3cc(F)c(F)cc3s2)ccc1NC(=O)[C@@H](N)CCCCN [Compound 4b]	30.7	302	–	20.04 nM resorufin mg^-1 protein	54.9	induced	–	–	–	–	–	–	–	–
Cc1cc(-c2nc3ccc(F)cc3s2)ccc1N [Compound 3]	0.65	0.73	–	32.60 nM resorufin mg^-1 protein	36.4	induced	not induced	–	–	–	–	–	–	emergence of an oxidative metabolite
Cc1cc(-c2nc3cc(F)c(F)cc3s2)ccc1NC(=O)[C@H](C)N [Compound 4a]	33	220	–	17.09 nM resorufin mg^-1 protein	41.9	induced	–	–	–	–	–	–	–	–
Cc1cc(-c2nc3cc(F)c(F)cc3s2)ccc1N [Compound 4]	< 0.1	3.55	–	32.02 nM resorufin mg^-1 protein	43.1	induced	–	–	–	–	–	–	–	emergence of an oxidative metabolite
